Data as given in patent US11168073B2, “3,3-difluoroallylamines or salts thereof and pharmaceutical compositions comprising the same” (YUHAN CORPORATION, priority 2018, dated 2021).
Counter-ions that a name gives are not always drawn. Like-named read-outs stand apart in the source and are kept apart here.

How the values were obtained:
Format in all cases: biochemical
[1] = biological target: T1, recombinant human MAO-B (monoamine oxidase-B) (Homo sapiens, UniProt P27338); assay: Activity evaluation on recombinant human MAO-B (Amplex Red/HRP-coupled assay, 1 mM benzylamine substrate); settings: read-out: Inhibitory Activity (IC50, nM) MAO-B
T1 construct: purchased Sigma-Aldrich
T1 sequence (P27338 1-520): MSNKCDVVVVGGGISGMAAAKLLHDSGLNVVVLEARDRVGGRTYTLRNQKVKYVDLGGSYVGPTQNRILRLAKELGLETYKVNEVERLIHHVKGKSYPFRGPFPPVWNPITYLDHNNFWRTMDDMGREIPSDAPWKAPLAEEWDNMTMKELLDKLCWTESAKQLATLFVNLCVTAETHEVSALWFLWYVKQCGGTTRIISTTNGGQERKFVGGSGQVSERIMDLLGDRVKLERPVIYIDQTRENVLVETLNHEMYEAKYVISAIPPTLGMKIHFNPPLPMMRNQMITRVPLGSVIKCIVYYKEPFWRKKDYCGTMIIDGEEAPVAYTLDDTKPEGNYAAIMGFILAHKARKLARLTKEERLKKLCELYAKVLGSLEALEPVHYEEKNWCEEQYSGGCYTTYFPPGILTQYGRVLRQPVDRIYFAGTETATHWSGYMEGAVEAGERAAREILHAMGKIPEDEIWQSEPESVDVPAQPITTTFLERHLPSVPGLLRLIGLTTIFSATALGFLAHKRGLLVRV
Summary of the method: (§1)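 8-pt 1:3 dilution series, final DMSO <1%; 30 min 37 °C preincubation w/ enzyme, 50 mM Na phosphate pH 7.4; + 200 uM Amplex Red, 1 U/mL HRP, substrate (MAO-A tyramine 0.5 mM; MAO-B benzylamine 1 mM; DAO putrescine 1 mM); fluor. rate 544/590 nm, 1-2 h; 4-param IC50.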

[2] = biological target: T2, recombinant human MAO-A (monoamine oxidase-A) (Homo sapiens, UniProt P21397); assay: Activity evaluation on recombinant human MAO-A (Amplex Red/HRP-coupled assay, 0.5 mM tyramine substrate); settings: read-out: Inhibitory Activity (IC50, nM) MAO-A
T2 construct: purchased Sigma-Aldrich
T2 sequence (P21397 1-527): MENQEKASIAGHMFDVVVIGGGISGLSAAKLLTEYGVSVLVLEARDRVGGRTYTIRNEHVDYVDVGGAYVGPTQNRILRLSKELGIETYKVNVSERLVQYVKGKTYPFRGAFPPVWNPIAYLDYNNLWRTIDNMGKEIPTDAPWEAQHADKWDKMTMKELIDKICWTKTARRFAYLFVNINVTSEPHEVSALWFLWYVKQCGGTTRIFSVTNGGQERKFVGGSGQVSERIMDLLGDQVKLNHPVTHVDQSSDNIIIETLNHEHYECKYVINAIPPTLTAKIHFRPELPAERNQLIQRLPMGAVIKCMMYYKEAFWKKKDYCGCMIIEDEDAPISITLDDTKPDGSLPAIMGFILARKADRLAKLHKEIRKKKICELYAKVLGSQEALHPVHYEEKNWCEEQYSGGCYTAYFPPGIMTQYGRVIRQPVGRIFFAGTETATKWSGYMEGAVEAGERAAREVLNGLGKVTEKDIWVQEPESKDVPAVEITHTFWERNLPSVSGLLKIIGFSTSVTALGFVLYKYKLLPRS
Summary of the method: as §1

[3] = biological target: T3, recombinant human DAO (diamine oxidase) (Homo sapiens, UniProt P19801); assay: Activity evaluation on recombinant human DAO (Amplex Red/HRP-coupled assay, 1 mM putrescine substrate); settings: read-out: Inhibitory Activity (IC50, nM) DAO
T3 construct: purchased R&D systems
T3 sequence (P19801 20-751): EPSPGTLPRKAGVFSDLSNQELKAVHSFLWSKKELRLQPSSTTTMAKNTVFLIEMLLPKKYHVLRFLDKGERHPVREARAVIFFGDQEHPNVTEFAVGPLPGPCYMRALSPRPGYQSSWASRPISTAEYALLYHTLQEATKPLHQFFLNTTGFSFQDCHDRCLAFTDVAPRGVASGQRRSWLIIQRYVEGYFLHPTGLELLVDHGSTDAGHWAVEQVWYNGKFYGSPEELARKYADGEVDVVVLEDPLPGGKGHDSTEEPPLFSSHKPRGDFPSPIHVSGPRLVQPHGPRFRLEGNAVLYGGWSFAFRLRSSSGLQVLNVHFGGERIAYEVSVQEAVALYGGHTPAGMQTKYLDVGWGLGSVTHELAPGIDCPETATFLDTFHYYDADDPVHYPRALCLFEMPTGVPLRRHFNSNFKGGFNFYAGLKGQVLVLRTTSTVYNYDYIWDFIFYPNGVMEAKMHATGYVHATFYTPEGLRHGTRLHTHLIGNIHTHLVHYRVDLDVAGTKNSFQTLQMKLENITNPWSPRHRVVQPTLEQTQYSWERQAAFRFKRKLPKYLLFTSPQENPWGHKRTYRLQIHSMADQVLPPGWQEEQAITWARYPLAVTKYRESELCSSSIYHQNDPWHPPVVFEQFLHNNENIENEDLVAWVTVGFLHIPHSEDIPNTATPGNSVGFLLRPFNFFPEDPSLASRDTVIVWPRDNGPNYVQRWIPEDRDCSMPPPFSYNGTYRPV
Summary of the method: as §1

[4] = biological target: T4, recombinant human VAP-1 (Homo sapiens, UniProt Q16853); assay: Activity evaluation on recombinant human VAP-1 (Amplex Red/HRP-coupled hydrogen peroxide assay, benzylamine substrate); settings: read-out: Inhibitory Activity (IC50, nM) human VAP-1
T4 construct: purchased R&D systems
T4 sequence (Q16853 1-763): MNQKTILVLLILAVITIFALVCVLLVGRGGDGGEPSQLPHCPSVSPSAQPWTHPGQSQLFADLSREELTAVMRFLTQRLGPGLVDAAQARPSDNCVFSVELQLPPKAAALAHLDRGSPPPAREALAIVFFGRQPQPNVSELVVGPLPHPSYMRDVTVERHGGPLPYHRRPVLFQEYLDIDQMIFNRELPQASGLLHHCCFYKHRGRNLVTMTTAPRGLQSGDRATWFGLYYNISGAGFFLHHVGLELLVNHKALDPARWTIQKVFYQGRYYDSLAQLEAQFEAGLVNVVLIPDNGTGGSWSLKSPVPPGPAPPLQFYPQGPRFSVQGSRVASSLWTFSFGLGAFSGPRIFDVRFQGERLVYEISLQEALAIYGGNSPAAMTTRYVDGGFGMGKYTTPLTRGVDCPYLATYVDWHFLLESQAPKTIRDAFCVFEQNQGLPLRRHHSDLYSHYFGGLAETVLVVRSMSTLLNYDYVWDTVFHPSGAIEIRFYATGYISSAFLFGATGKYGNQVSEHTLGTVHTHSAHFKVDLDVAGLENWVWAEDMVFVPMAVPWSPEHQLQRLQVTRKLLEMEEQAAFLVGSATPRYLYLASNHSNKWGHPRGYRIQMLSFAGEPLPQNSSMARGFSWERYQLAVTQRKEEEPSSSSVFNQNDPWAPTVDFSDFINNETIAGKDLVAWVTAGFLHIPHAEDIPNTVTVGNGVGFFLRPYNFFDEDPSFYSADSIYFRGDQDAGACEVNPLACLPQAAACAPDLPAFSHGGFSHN
Summary of the method: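 Hydrogen peroxide from benzylamine (1 mM) oxidation by human recombinant VAP-1 detected via HRP-coupled Amplex Red (200 uM) fluorescence, kinetic over 1–2 h. Enzyme and compound preincubated 30 min at 37 °C, pH 7.4 phosphate; 8-point dose response, signal-rate decrease versus DMSO control fitted to four-parameter logistic for IC50.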

[5] = recombinant human VAP-1, 30 min preincubation at 37° C., 1 mM benzylamine
[6] = recombinant human VAP-1, benzylamine substrate

| SMILES | IC50 ([1]; 1 mM benzylamine) | IC50 ([2]; 0.5 mM tyramine) | IC50 ([3]; 1 mM putrescine) | IC50 [4, 5] | IC50 ([1]; 1 mM benzylamine substrate) | IC50 ([2]; 0.5 mM tyramine substrate) | IC50 ([3]; 1 mM putrescine substrate) | IC50 [4, 6] |
| --- | --- | --- | --- | --- | --- | --- | --- | --- |
| NCC(Cn1ncn(Cc2ccc(-c3cc(F)c4c(c3)CC(=O)N4)s2)c1=O)=C(F)F [Example 130, 5-[5-[[1-[2-(aminomethyl)-3,3-difluoro-allyl]-5-oxo-1,2,4-triazol-4-yl]methyl]-2-thienyl]-7-fluoro-indolin-2-one Trifluoroacetate] | > 100000 nM | > 100000 nM | > 100000 nM | 0.7 nM |  |  |  |  |
| CN(C)c1ccc(-c2csc(Cn3cnn(CC(CN)=C(F)F)c3=O)c2)cn1 [Example 149, 2-[2-(aminomethyl)-3,3-difluoro-allyl]-4-[[4-[6-(dimethylamino)-3-pyridyl]-2-thienyl]methyl]-1,2,4-triazol-3-one Trifluoroacetate] | > 100000 nM | > 100000 nM | > 10000 nM | 0.6 nM |  |  |  |  |
| CN1C(=O)CCc2cc(-c3ccccc3Cn3cnn(CC(CN)=C(F)F)c3=O)ccc21 [Example 284, 6-[2-[[1-[2-(aminomethyl)-3,3-difluoro-allyl]-5-oxo-1,2,4-triazol-4-yl]methyl]phenyl]-1-methyl-3,4-dihydroquinolin-2-one trifluoroacetate] |  |  |  |  | > 100000 nM | > 100000 nM | 66400 nM | 148 nM |
| CS(=O)(=O)c1ccc(-c2ccc(Cn3cnn(CC(CN)=C(F)F)c3=O)cc2)cc1 [Example 265, 2-[2-(aminomethyl)-3,3-difluoro-allyl]-4-[[4-(4-methylsulfonylphenyl)phenyl]methyl]-1,2,4-triazol-3-one Trifluoroacetate] |  |  |  |  | > 100000 nM | > 100000 nM | > 100000 nM | 1.4 nM |
| NCC(Cn1ncn(Cc2cc(-c3cnn(C(F)F)c3)cs2)c1=O)=C(F)F [Example 194, 2-[2-(aminomethyl)-3,3-difluoro-allyl]-4-[[4-[1-(difluoromethyl)pyrazol-4-yl]-2-thienyl]methyl]-1,2,4-triazol-3-one Trifluoroacetate] |  |  |  |  | 9200 nM | > 100000 nM | 64000 nM | 2.9 nM |
| CCn1cc(-c2ccnc(-n3cnn(CC(CN)=C(F)F)c3=O)c2)cn1 [Example 60, 2-[2-(aminomethyl)-3,3-difluoro-allyl]-4-[4-(1-ethylpyrazol-4-yl)-2-pyridyl]-1,2,4-triazol-3-one Trifluoroacetate] | > 100000 nM | > 100000 nM | 810 nM | 1.3 nM |  |  |  |  |
| CCn1cc(-c2ccc(Cn3cnn(CC(CN)=C(F)F)c3=O)s2)cn1 [Example 119, 2-[2-(aminomethyl)-3,3-difluoro-allyl]-4-[[5-(1-ethylpyrazol-4-yl)-2-thienyl]methyl]-1,2,4-triazol-3-one Trifluoroacetate] | 30000 nM | > 100000 nM | > 10000 nM | 0.5 nM |  |  |  |  |
| NCC(Cn1ncn(Cc2ccccc2-c2ccc(N3CCNCC3)cc2)c1=O)=C(F)F [Example 280, 2-[2-(aminomethyl)-3,3-difluoro-allyl]-4-[[2-(4-piperazin-1-ylphenyl)phenyl]methyl]-1,2,4-triazol-3-one Ditrifluoroacetate] |  |  |  |  | > 100000 nM | > 100000 nM | > 100000 nM | 2380 nM |
| Cc1cc(C#Cc2ccc(N(C)C)nc2)cnc1-n1cnn(CC(CN)=C(F)F)c1=O [Example 241, 2-[2-(aminomethyl)-3,3-difluoro-allyl]-4-[5-[2-[6-(dimethylamino)-3-pyridyl]ethynyl]-3-methyl-2-pyridyl]-1,2,4-triazol-3-one Trifluoroacetate] |  |  |  |  | 6300 nM | > 100000 nM | 25000 nM | 1.3 nM |
| CN(C)c1ccc(-c2cccc(Cn3cnn(CC(CN)=C(F)F)c3=O)c2)cn1 [Example 273, 2-[2-(aminomethyl)-3,3-difluoro-allyl]-4-[[3-[6-(dimethylamino)-3-pyridyl]phenyl]methyl]-1,2,4-triazol-3-one Trifluoroacetate] |  |  |  |  | 2900 nM | > 100000 nM | 39300 nM | 1.8 nM |
| CCn1cc(-c2ccc(-c3cnc(-n4cnn(CC(CN)=C(F)F)c4=O)c(C)c3)cc2)cn1 [Example 290, 2-[2-(aminomethyl)-3,3-difluoro-allyl]-4-[5-[4-(1-ethylpyrazol-4-yl)phenyl]-3-methyl-2-pyridyl]-1,2,4-triazol-3-one Trifluoroacetate] |  |  |  |  | 1190 nM | > 100000 nM | 2380 nM | 0.7 nM |
| Cc1cc(C#Cc2ccc3c(c2)NCCO3)cnc1-n1cnn(CC(CN)=C(F)F)c1=O [Example 243, 2-[2-(aminomethyl)-3,3-difluoro-allyl]-4-[5-[2-(3,4-dihydro-2H-1,4-benzoxazin-6-yl)ethynyl]-3-methyl-2-pyridyl]-1,2,4-triazol-3-one Ditrifluoroacetate] |  |  |  |  | 2200 nM | 32700 nM | 4600 nM | 0.9 nM |
